Laboratory results as given in patent US9546164B2 (GENENTECH, INC., priority 2013, dated 2017).
Counter-ions that a name gives are not always drawn. Like-named read-outs stand apart in the source and are kept apart here.

Target: hNav1.7 (Homo sapiens (Human), UniProt Q15858)
Test: Tritiated sulfonamide competitive binding to membranes from cells expressing hNav1.7 and the β1 subunit;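 further: Filter-bound radioactivity counted by liquid scintillation, nonspecific binding defined with excess unlabelled ligand, IC50 fitted to percent inhibition of specific binding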
[1] = read-out: Ligand Binding Assay, 100 pM [3H]compound, membranes with hNav1.7 and β1 subunit, 18 h, room temperature

Chain of hNav1.7 (Q15858 other isoform, or with tags, fused parts or gaps): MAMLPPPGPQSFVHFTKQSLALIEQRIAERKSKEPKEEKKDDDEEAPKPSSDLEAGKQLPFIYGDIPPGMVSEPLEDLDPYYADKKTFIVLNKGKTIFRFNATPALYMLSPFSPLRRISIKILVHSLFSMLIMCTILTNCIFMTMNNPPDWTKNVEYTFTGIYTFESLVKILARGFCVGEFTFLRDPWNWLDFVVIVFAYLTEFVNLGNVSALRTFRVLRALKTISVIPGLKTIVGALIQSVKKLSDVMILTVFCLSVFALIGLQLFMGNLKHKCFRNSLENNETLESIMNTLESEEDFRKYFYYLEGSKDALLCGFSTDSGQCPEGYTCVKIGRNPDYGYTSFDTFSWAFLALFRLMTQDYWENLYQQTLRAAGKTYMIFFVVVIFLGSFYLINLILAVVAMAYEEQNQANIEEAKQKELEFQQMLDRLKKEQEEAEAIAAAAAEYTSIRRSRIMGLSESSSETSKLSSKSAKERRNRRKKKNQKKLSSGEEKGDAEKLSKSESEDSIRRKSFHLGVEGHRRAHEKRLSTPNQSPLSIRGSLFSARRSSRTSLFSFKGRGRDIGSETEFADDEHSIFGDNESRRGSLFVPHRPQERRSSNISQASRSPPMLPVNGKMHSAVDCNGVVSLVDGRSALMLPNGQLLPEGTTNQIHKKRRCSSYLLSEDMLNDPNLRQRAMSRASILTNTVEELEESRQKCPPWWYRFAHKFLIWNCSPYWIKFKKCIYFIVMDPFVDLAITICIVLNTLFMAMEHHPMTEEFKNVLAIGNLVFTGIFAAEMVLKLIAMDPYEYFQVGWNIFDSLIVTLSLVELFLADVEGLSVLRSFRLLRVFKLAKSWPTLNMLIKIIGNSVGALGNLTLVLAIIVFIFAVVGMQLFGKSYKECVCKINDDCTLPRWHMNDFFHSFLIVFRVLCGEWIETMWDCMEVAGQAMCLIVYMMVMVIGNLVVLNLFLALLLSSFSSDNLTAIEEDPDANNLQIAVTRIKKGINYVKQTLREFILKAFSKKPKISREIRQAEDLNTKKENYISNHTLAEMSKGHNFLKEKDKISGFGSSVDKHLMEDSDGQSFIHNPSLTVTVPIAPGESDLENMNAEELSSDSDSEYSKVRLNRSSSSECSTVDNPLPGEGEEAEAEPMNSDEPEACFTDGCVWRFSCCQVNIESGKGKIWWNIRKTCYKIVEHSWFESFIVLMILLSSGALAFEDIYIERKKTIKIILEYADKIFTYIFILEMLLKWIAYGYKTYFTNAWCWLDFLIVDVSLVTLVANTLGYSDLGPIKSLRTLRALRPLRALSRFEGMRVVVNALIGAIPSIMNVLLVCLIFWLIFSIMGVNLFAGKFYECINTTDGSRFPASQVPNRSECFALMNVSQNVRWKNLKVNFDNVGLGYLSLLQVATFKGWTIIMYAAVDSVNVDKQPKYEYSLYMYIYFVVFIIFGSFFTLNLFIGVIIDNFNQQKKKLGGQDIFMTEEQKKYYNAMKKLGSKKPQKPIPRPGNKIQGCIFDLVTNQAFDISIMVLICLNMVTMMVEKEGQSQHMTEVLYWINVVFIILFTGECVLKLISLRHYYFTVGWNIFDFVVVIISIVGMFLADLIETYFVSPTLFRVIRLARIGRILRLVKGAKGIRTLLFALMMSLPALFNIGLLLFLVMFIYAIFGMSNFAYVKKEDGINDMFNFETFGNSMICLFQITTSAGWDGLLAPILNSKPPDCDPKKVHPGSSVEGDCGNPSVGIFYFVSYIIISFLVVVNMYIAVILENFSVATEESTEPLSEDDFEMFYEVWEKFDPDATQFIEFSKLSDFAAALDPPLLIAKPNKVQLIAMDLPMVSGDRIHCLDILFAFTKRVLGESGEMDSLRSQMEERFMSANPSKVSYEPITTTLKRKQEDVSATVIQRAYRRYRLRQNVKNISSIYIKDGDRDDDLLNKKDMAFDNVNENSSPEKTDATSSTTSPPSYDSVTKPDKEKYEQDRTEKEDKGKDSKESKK
Chain of hNav1.7 (Q07699 19-218 partner): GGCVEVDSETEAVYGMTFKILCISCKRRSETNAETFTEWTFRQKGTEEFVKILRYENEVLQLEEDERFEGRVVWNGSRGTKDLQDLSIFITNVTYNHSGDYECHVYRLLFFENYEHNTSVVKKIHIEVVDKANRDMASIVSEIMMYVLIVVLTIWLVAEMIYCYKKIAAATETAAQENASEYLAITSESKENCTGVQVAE

IC50 [1] [nM] | IC50 [nM] | Structure (SMILES)
1.88 | – | CS(=O)(=O)NC(=O)c1cc(C2CC2)c(OCC2CCN(Cc3cc(Cl)cc(OC(F)(F)F)c3)CC2)cc1F [Example 136, 4-((1-(3-Chloro-5-(trifluoromethoxy)benzyl)piperidin-4-yl)methoxy)-5-cyclopropyl-2-fluoro-N-(methylsulfonyl)benzamide]
6.3 | – | O=C(NS(=O)(=O)C1CC1)c1cc(C2CC2)c(OCC2(F)CCN(Cc3cc(C(F)(F)F)cc(Cl)c3F)CC2)cc1F [Example 347, 4-((1-(3-chloro-2-fluoro-5-(trifluoromethyl)benzyl)-4-fluoropiperidin-4-yl)methoxy)-5-cyclopropyl-N-(cyclopropylsulfonyl)-2-fluorobenzamide, trifluoroacetic acid salt]
1100 | – | CS(=O)(=O)NC(=O)c1cc(C2CC2)c(OCC2CCN(C(=O)c3ccccc3C(F)(F)F)CC2)cc1F [Example 255]
5.3 | – | O=C(NS(=O)(=O)C1CC1)c1cc(C2CC2)c(OCC2CCN(Cc3ccc(C4CC4)cc3Cl)CC2)cc1F [Example 416, 4-((1-(2-chloro-4-cyclopropylbenzyl)piperidin-4-yl)methoxy)-5-cyclopropyl-N-(cyclopropylsulfonyl)-2-fluorobenzamide, trifluoroacetic acid salt]
– | 41.1 | CS(=O)(=O)NC(=O)c1cc(C2CC2)c(OCC2CN([C@@H](c3ccccc3)c3ccc(C#N)cc3)C2)cc1F [Example 110, (S)-4-((1-((4-Cyanophenyl)(phenyl)methyl)azetidin-3-yl)methoxy)-5-cyclopropyl-2-fluoro-N-(methylsulfonyl)benzamide]
– | 15.2 | C[C@H]1CN(Cc2cc(F)c(C(=O)NS(C)(=O)=O)cc2C2CC2)CCN1[C@@H](C)c1cc(Cl)cc(Cl)c1 [Example 567, 5-cyclopropyl-4-(((S)-4-((S)-1-(3,5-dichlorophenyl)ethyl)-3-methylpiperazin-1-yl)methyl)-2-fluoro-N-(methylsulfonyl)benzamide]
6.1 | – | CCS(=O)(=O)NC(=O)c1cc(C2CC2)c(OCC2(C)CN(C(c3ccccc3)c3ccccc3)C2)cc1F [Example 69, 4-((1-benzhydryl-3-methylazetidin-3-yl)methoxy)-5-cyclopropyl-N-(ethylsulfonyl)-2-fluorobenzamide]
11 | – | CS(=O)(=O)NC(=O)c1cc(C2CC2)c(OCC2CCN(Cc3ccc(Br)cc3F)CC2)cc1F [Example 589, 4-((1-(4-bromo-2-fluorobenzyl)piperidin-4-yl)methoxy)-5-cyclopropyl-2-fluoro-N-(methylsulfonyl)benzamide]
346 | – | CS(=O)(=O)NC(=O)c1cc(C2CC2)c(OCC2CN(C(=O)c3cc(Cl)cc(Cl)c3)C2)cc1F [Example 134, 5-Cyclopropyl-4-((1-(3,5-dichlorobenzoyl)azetidin-3-yl)methoxy)-2-fluoro-N-(methylsulfonyl)benzamide]
– | 44.3 | C[C@@H]1CN(Cc2cc(F)c(C(=O)NS(C)(=O)=O)cc2C2CC2)CCN1[C@@H](C)c1cc(Cl)cc(Cl)c1 [Example 571, 5-cyclopropyl-4-(((R)-4-((S)-1-(3,5-dichlorophenyl)ethyl)-3-methylpiperazin-1-yl)methyl)-2-fluoro-N-(methylsulfonyl)benzamide]
4.05 | – | CS(=O)(=O)NC(=O)c1cc(C2CC2)c(OCC2CN(C(c3ccccc3)c3ccc(Cl)c(Cl)c3)C2)cc1F (stereo not shown) [Example 80, 5-Cyclopropyl-4-((1-((3,4-dichlorophenyl)(phenyl)methyl)azetidin-3-yl)methoxy)-2-fluoro-N-(methylsulfonyl)benzamide]
– | 2.3 | CC(C)(c1cccc(Cl)c1)N1CCC[C@@H](Oc2cc(F)c(C(=O)NS(=O)(=O)C3CC3)cc2C2CC2)C1 [Example 530, (R)-4-((1-(2-(3-chlorophenyl)propan-2-yl)piperidin-3-yl)oxy)-5-cyclopropyl-N-(cyclopropylsulfonyl)-2-fluorobenzamide, trifluoroacetic acid salt]
1.6 | – | CC(c1cc(Cl)cc(Cl)c1F)N1CCC(COc2cc(F)c(C(=O)NS(C)(=O)=O)cc2C2CC2)CC1 (stereo in doubt) [Example 236, (R)-5-cyclopropyl-4-((1-(1-(3,5-dichloro-2-fluorophenyl)ethyl)piperidin-4-yl)methoxy)-2-fluoro-N-(methylsulfonyl)benzamide]
7 | – | C[C@H](c1cc(Cl)cc(Cl)c1)N1CC(C)(COc2cc(F)c(C(=O)NS(C)(=O)=O)cc2C2CC2)C1 (single isomer, unassigned) [Example 185]
3.9 | – | CC1(COc2cc(F)c(C(=O)NS(C)(=O)=O)cc2C2CC2)CCN(Cc2cc(C(F)(F)F)cc(Cl)c2F)CC1 [Example 141, 4-((1-(3-chloro-2-fluoro-5-(trifluoromethyl)benzyl)-4-methylpiperidin-4-yl)methoxy)-5-cyclopropyl-2-fluoro-N-(methylsulfonyl)benzamide]
17.2 | – | O=C(NS(=O)(=O)C1CC1)c1cc(C2CC2)c(OCC2CCN(S(=O)(=O)c3ccc(OC(F)(F)F)cc3)CC2)cc1F [Example 379, 5-cyclopropyl-N-(cyclopropylsulfonyl)-2-fluoro-4-((1-((4-(trifluoromethoxy)phenyl)sulfonyl)piperidin-4-yl)methoxy)benzamide]
5.2 | – | COC[C@H](c1ccc(F)c(C(F)(F)F)c1)N1CCC(COc2cc(F)c(C(=O)NS(C)(=O)=O)cc2C2CC2)CC1 (single isomer, unassigned) [Example 188]
– | 3.6 | O=C(NS(=O)(=O)N1CCC1)c1cc(C2CC2)c(O[C@@H]2CCCN(Cc3ccc(F)cc3C(F)(F)F)C2)cc1F [Example 36, (R)—N-(azetidin-1-ylsulfonyl)-5-cyclopropyl-2-fluoro-4-((1-(4-fluoro-2-(trifluoromethyl)benzyl)piperidin-3-yl)oxy)benzamide]
2.1 | – | Cc1ccc(CN2CCC[C@@H](Oc3cc(F)c(C(=O)NS(C)(=O)=O)cc3C3CC3)C2)c(C)c1 [Example 423, (R)-5-cyclopropyl-4-((1-(2,4-dimethylbenzyl)piperidin-3-yl)oxy)-2-fluoro-N-(methylsulfonyl)benzamide, trifluoroacetic acid salt]
2.5 | – | CCS(=O)(=O)NC(=O)c1cc(C2CC2)c(OCC2CCN(Cc3ccc(Cl)cc3Cl)CC2)cc1F [Example 213, 5-cyclopropyl-4-((1-(2,4-dichlorobenzyl)piperidin-4-yl)methoxy)-N-(ethylsulfonyl)-2-fluorobenzamide]
550 | – | O=C(NS(=O)(=O)C1CC1)c1cc(C2CC2)c(OCC2CCN(C(=O)c3ccccc3)CC2)cc1F [Example 198, 4-((1-Benzoylpiperidin-4-yl)methoxy)-5-cyclopropyl-N-(cyclopropylsulfonyl)-2-fluorobenzamide]
5.1 | – | CCS(=O)(=O)NC(=O)c1cc(C2CC2)c(OCC2CCN(Cc3cc(Cl)cc(Cl)c3)CC2)cc1F [Example 184, 5-Cyclopropyl-4-((1-(3,5-dichlorobenzyl)piperidin-4-yl)methoxy)-N-(ethylsulfonyl)-2-fluorobenzamide]
– | 44 | O=C(NS(=O)(=O)C1CC1)c1cc(C2CC2)c(CN2CCC(Oc3ccc(F)cc3)CC2)cc1F [Example 508, 5-cyclopropyl-N-(cyclopropylsulfonyl)-2-fluoro-4-((4-(4-fluorophenoxy)piperidin-1-yl)methyl)benzamide, trifluoroacetic acid salt]
32.2 | – | C[C@H]1[C@H](Oc2cc(F)c(C(=O)NS(C)(=O)=O)cc2C2CC2)CCCN1Cc1cc(Cl)cc(Cl)c1 [Example 331, 5-cyclopropyl-4-(((2S,3R)-1-(3,5-dichlorobenzyl)-2-methylpiperidin-3-yl)oxy)-2-fluoro-N-(methylsulfonyl)benzamide, trifluoroacetic acid salt]
5 | – | C[C@H](c1cc(F)cc(C(F)(F)F)c1)N1CCC(C)(COc2cc(F)c(C(=O)NS(C)(=O)=O)cc2C2CC2)CC1 [Example 170, (R)-5-cyclopropyl-2-fluoro-4-((1-(1-(3-fluoro-5-(trifluoromethyl)phenyl)ethyl)-4-methylpiperidin-4-yl)methoxy)-N-(methylsulfonyl)benzamide]
43 | – | O=C(NS(=O)(=O)C1CC1)c1cc(C2CC2)c(OCC2CCN(C(=O)c3cccc(Cl)c3)CC2)cc1F [Example 196, 4-((1-(3-Chlorobenzoyl)piperidin-4-yl)methoxy)-5-cyclopropyl-N-(cyclopropylsulfonyl)-2-fluorobenzamide]
– | 2.4 | CC(C)(c1cccc(Cl)c1)N1CCC[C@@H](Oc2cc(F)c(C(=O)NS(C)(=O)=O)cc2C2CC2)C1 [Example 529, (R)-4-((1-(2-(3-chlorophenyl)propan-2-yl)piperidin-3-yl)oxy)-5-cyclopropyl-2-fluoro-N-(methylsulfonyl)benzamide, trifluoroacetic acid salt]
3.8 | – | O=C(NS(=O)(=O)C1CC1)c1cc(C2CC2)c(CN2CCC(Oc3cc(Cl)cc(Cl)c3)CC2)cc1F [Example 57, 5-cyclopropyl-N-(cyclopropylsulfonyl)-4-((4-(3,5-dichlorophenoxy)piperidin-1-yl)methyl)-2-fluorobenzamide, trifluoroacetic acid salt]

Structure (SMILES) | IC50 [1] [nM] | IC50 [nM]
O=C(NS(=O)(=O)N1CCC1)c1cc(C2CC2)c(OCC2CC3CCC(C2)N3Cc2ccccc2)cc1F (stereo not shown) [Example 48, N-(azetidin-1-ylsulfonyl)-4-((8-benzyl-8-azabicyclo[3.2.1]octan-3-yl)methoxy)-5-cyclopropyl-2-fluorobenzamide] | 2820 | –
CS(=O)(=O)NC(=O)c1cc(C2CC2)c(CN2[C@@H]3CC[C@H]2C[C@@H](Oc2cc(C(F)(F)F)c(Cl)cn2)C3)cc1F [Example 550, 4-(((1R,3r,5S)-3-((5-chloro-4-(trifluoromethyl)pyridin-2-yl)oxy)-8-azabicyclo[3.2.1]octan-8-yl)methyl)-5-cyclopropyl-2-fluoro-N-(methylsulfonyl)benzamide, trifluoroacetic acid salt] | 13.6 | –
O=C(NS(=O)(=O)C1CC1)c1cc(C2CC2)c(CN2CCC(CF)(c3ccc(F)cc3)CC2)cc1F [Example 514, 5-cyclopropyl-N-(cyclopropylsulfonyl)-2-fluoro-4-((4-(fluoromethyl)-4-(4-fluorophenyl)piperidin-1-yl)methyl)benzamide, trifluoroacetic acid salt] | – | 24.4
